Values quoted from earlier work as cited in US10933021B2, “Compositions of gallium (III) complexes for oral administration” (Altum Pharmaceuticals Inc., priority 2017, dated 2021).

Key:
[1] = pH values below the pKa of 8-hydroxyquinoline (5.01)
[2] = pH 7.4, serum
[3] = seven patients, oral enteric coated tablets of crystalline GaQ3, 10 mg, 20 mg, 30 mg strengths
[4] = tested on: tumor cell lines resistant to gallium nitrate
[5] = tested on: apoptosis induction; details: compared to simple gallium salts such as gallium nitrate
[6] = biological target: transferrin (Tf) (Homo sapiens, UniProt P02787); details: human serum
[7] = biological target: albumin (Homo sapiens, UniProt P02768); details: human serum
Chain of albumin (P02768 25-609): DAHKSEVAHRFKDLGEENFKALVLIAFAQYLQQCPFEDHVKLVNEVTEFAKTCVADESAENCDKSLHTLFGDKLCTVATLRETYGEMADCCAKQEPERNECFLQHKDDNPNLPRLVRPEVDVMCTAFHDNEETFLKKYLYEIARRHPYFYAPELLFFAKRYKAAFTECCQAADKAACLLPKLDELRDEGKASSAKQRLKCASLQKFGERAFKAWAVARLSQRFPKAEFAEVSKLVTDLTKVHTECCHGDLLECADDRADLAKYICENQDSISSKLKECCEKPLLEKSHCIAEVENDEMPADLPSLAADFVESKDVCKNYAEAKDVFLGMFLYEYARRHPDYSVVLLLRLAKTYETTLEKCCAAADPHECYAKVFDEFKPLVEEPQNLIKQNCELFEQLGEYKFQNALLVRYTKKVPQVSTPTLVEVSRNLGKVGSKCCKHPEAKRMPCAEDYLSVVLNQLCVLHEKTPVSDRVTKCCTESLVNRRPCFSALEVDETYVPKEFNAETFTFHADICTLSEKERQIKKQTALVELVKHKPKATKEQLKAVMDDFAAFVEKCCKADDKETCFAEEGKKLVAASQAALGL

Chain of transferrin (Tf) (P02787 20-698): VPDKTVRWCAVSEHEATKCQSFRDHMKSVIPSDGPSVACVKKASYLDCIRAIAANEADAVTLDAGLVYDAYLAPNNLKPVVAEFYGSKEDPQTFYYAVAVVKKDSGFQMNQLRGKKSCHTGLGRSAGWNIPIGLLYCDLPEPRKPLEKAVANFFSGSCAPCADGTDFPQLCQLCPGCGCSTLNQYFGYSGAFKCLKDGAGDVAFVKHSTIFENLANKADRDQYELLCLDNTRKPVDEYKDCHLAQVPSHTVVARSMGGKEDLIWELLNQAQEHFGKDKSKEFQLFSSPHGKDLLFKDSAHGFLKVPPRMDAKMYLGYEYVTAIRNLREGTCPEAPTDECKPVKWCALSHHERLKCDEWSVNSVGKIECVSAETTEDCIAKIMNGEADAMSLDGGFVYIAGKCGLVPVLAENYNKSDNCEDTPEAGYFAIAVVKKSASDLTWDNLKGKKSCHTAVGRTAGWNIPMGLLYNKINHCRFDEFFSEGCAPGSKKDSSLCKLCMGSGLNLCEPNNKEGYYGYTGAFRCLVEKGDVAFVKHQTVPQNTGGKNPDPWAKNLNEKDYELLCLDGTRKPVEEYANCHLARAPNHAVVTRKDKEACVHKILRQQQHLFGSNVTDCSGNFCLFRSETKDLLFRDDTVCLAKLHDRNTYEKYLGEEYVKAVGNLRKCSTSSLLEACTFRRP

For `[Ga+3].[O-]c1cccc2cccnc12.[O-]c1cccc2cccnc12.[O-]c1cccc2cccnc12` [GaQ3, tris (8-quinolinolato) gallium (III)], the “integrity of complexed structure” value [1] is listed as “disrupted completely”, the stability in serum [2] is listed as “very stable” and the tolerability [3] is listed as “well tolerated”. The “activity against tumor cell lines resistant to gallium nitrate” value [4] was “active”, the solubility in water was 18-22 ppm and the “apoptosis induction relative to gallium nitrate” value [5] was “ca. 3 ×”. The “binding to transferrin (Tf)” value [6] was “strongly” and the binding to albumin [7] was “binds very weakly”.
